# Tests used:
# Format in all cases: in vivo
# pancreatic β cells = assay: Test Example 9: pancreatic β cells and insulin in transgenic zebrafish embryos; details: vs control; for production amount of insulin by β cells (immunostaining with anti-insulin antibody, average fluorescence intensity): 100 nM or 5 nM, 20 h after injection, n=10; for production amount of insulin by β cells (in situ hybridization, ins probe): 100 nM, 14 h after injection, n=100
# Procedure: Transgenic zebrafish expressing pancreatic β-cell GFP
# Transgenic zebrafish embryos expressing pancreatic β-cell GFP at 10 hours after fertilization were held with the dorsal side of the head up on a coffin, and a glass capillary was inserted from the dorsal side into a gap just below the midline neural tube at about 2 times the distance between the rostral end and the ear vesicles to the caudal side (pancreatic primordium). A nitrogen gas pressure (15 picosiemens) was applied for 15 to 45 milliseconds, and the test compound was injected. The concentration of the test compound was 100 nM/E3, and 0.025% (final concentration) phenol red was mixed as a tracer of the infusion solution. The injection was performed in pulses with a foot pedal and continued until phenol red was distributed in an elliptical shape with a major axis of 200 μm from the insertion point.
# The test compound (100 nM) was injected on a coffin in transgenic zebrafish embryos expressing pancreatic β-cell GFP at 10 hours after fertilization. After injection, embryos were cultured in E3 at 28.5° C. for 14 hours. After chorions were removed with tweezers, the embryos were fixed with 4% paraformaldehyde/PBS at room temperature for 1 hour, and in situ hybridization was performed overnight at 65° C. in the presence of a DIG probe of insulin (ins) according to a conventional method. After washing, β cells were stained by an alkali phosphatase color reaction using an anti-DIG antibody. After staining, the embryos were washed with PBS, embedded in 75% glycerin/PBS and localized, and then microscopically photographed with incident light. The number of test individuals was unified with n=100 for each test compound (FIG. 23).
# Transgenic zebrafish embryos expressing pancreatic β-cell GFP at 10 hours after fertilization were injected with the test compound (100 nM or 5 nM) on the coffin. After injection, embryos were cultured in E3 at 28.5° C. for 20 hours in the presence of 0.2 mM phenylthiourea (PTU). After chorions were removed with tweezers, the embryos were fixed with 4% paraformaldehyde/PBS at normal temperature for 1 hour, immunohistochemically reacted with an anti-insulin antibody according to a conventional method, and then reacted with an Alexa fluor 488 anti-mouse IgG secondary antibody. The reacted embryos were washed with PBS, embedded in 75% glycerin/PBS and localized, and then microscopically photographed with 488 nm excitation light (FIG. 24). The number of tested individuals was unified with n=10 for each compound. The insulin amount was quantified by measuring the average fluorescence intensity in a circle with a radius of 100 μm centered on the fluorescence point (FIG. 25).
# Purkinje cells = assay: Test Example 6: increase in Purkinje cells of adult mouse after injection into E11.5 fetal ventricle; details: test compounds = Compounds 1 to 7; 100 μM injected into E11.5 fetal ventricle, counted in adult mice; vs control; N=10
# Procedure: A solution prepared by dissolving 100 μM of the test compound in physiological saline was injected into E11.5 mouse fetal ventricle. Brains of adult mouse individuals were fixed, and slice sections of cerebellar Purkinje cell layers were immunostained with an anti-d-Calbindin antibody, which is a marker of cell bodies and neurites of Purkinje cells. After staining, the number of Purkinje cells was counted, and the average value thereof was calculated.
# As a control experiment (control), a similar experiment was performed using physiological saline containing no test compound.
# The number of samples is 10 for each of Compounds 1 to 7 and control (N=10).
# cardiomyocytes = assay: Test Example 8: enhancement of myocardium in zebrafish embryo (nkx2.5 in situ hybridization, blood cells pumped per heartbeat); details: test compounds = Compounds 1 to 7; 100 μM injected at heart primordium 10 h after fertilization; vs control; n=80
# Procedure: Zebrafish embryos at 10 hours after fertilization were held with the dorsal side of the head up on a coffin (plastic plate with V-shaped grooves for holding), and a glass capillary was inserted into a midline between head and ear vesicles (heart primordium). Nitrogen gas pressure (15 picosiemens) was applied for 15 to 45 milliseconds and injected into the gap just below the neural tube. The test compound concentration was 100 μM/E3, and 0.025% (final concentration) phenol red was mixed as a tracer of the injection solution. The injection was performed in pulses with a foot pedal and continued until phenol red was distributed in an elliptical shape with a major axis of 200 μm from the insertion point. After injection, embryos were cultured at 28.5° C. for 14 hours in E3. After chorions were removed with tweezers, the embryos were fixed with 4% paraformaldehyde/PBS at normal temperature for 1 hour, and in situ hybridization was performed overnight at 65° C. in the presence of a DIG probe of nk×2.5 as a cardiac muscle marker according to a conventional method. After washing, cardiomyocytes were stained by an alkali phosphatase color reaction using an anti-DIG antibody. The stained embryos were washed with PBS, embedded in 75% glycerin/PBS and localized, and then microscopically photographed with incident light. The number of tested individuals was unified with n=80 for each compound.
# In addition, the zebrafish embryos injected with the test compound by the above-described method were cultured at 28.5° C. until 48 hours after fertilization, embedded in 3% methyl cellulose/E3, and a moving image was photographed. The number of blood cells pumped in one heartbeat in time-lapse was counted n=15 and compared to Ringer injected individuals.
# [1] = system: mesencephalic neural stem cells; assay: Test Example 7: increase in neural stem cells of adult zebrafish by intracerebroventricular administration; details: test compounds = Compounds 1 to 7; 100 μM into ventricle of one-month-old fish, 1 week; E3 Ringer or lipofection; vs control
# Procedure: Reporter gene transgenic line of zebrafish specifically expressing green fluorescent protein in mesencephalic neural stem cells
# A solution (0.1% DMSO) in which the test compound (100 μM) was dissolved in E3 Ringer (zebrafish physiological saline) was prepared. Mesencephalic neural stem cells were microscopically injected into the ventricles of one-month-old adult fish individuals labeled with green fluorescent protein, and cultured at 28.5° C. for 1 week.
# As a control experiment (control), only E3 Ringer (0.1% DMSO plus 0.025% phenol red) was administered into the ventricle in the same volume. […]
# Specifically, the solid cultured for 7 days after injection was held in a 3% methylcellulose/E3 Ringer/0.02% tricaine solution on a slide glass, and then GFP was emitted with 488 nm excitation light and imaged by a CCD camera. In addition, the average fluorescence brightness of the green fluorescent protein in a rectangle with a width of 100 μm and a height of 50 μm with the rostral end up around the fluorescence expression part was measured with a brightness analysis software. […]
# In order to inhibit synthesis of melanin pigment that interferes with observation with a fluorescence microscope, 0.2 mM phenylthiourea (PTU) had been added to the culture solution.
# [2] = system: sox1α, sox2, sox3, and her6; assay: Test Example 1: quantitative PCR of neural stem cell markers in brains of treated zebrafish; details: brain of treated zebrafish individuals; ΔΔCt; vs control
# Procedure: Moreover, the brains of the treated zebrafish individuals were dissected and washed with sterile distilled water, and then crushed by pipetting or 1 ml syringe suction discharge with 18 G to 24 G needles in 500 μl of Sepasol-RNA I Super G (Nacalai Tesque). A deproteinization operation was conducted once by equivalent phenol/chloroform treatment and once by chloroform treatment, and the supernatant was subjected to RNA purification using an RNA purification column (RNeasy Plus Mini Kit, Qiagen). The elute was reverse-transcribed using a mixed primer of random hexamer and oligo-dT (ReverTra Ace qPCR Kit, TOYOBO) at 37° C. for 15 minutes and 98° C. for 5 minutes, and quantitative PCR of expression levels of sox1α, sox2, sox3, and her6, which are markers of neural stem cells, was performed. Quantitative PCR was performed with SYBER Green Realtime PCR Master Mix (TOYOBO). For the PCR reaction, ABI PRISM 7700 or LightCycler from Roche Diagnostics K.K. was used. Quantification was performed in 3 wells per identical sample (n=3). The obtained data was comparatively quantified by a ΔΔCt method using a normalizer (β-actin, GAPDH, 18S, or the like). In order to confirm that the quantitative reaction was reliable, it was confirmed that the amplification product was in a band by agarose electrophoresis.
SMILES,"production amount of insulin by β cells (immunostaining with anti-insulin antibody, average fluorescence intensity) (pancreatic β cells)","production amount of insulin by β cells (in situ hybridization, ins probe) (pancreatic β cells)",number of Purkinje cells in the cerebellar Purkinje cell layers (Purkinje cells),"amount of cardiomyocytes (in situ hybridization, nkx2.5) (cardiomyocytes)",fluorescence indicating the presence of mesencephalic neural stem cells in the brain of adult zebrafish [1],"expression levels of sox1α, sox2, sox3, and her6 (quantitative PCR) [2]"
"COc1cc(N2CCC(N(C)C)CC2)ccc1Nc1ncc(Cl)c(Nc2ccccc2P(C)(C)=O)n1 [Compound 6, 5-Chloro-2-N-{4-[4-(dimethylamino)piperidin-1-yl]-2-methoxyphenyl}-4-N-[2-(dimethylphosphoryl)phenyl]pyrimidine-2,4-diamine]",significantly increased as compared with the control individual,significantly increased as compared with the control individual,–,–,–,–
"O=C(O)CCC(=O)Nc1ccc(Br)cn1 [Compound 5, 4-[(5-Bromopyridin-2-yl)amino]-4-oxobutyric acid]",–,significantly increased as compared with the control individual,significantly higher than that of the control,increase in the amount of cardiomyocytes was observed,strongly detected as compared with the control,–
"Cc1cccc(-c2n[nH]cc2-c2ccnc3ccccc23)n1 [Compound 2, 4-[3-(6-Methylpyridin-2-yl)-1H-pyrazol-4-yl]quinoline]",significantly increased as compared with the control individual,significantly increased as compared with the control individual,significantly higher than that of the control,increase in the amount of cardiomyocytes was observed,–,significant increase in expression levels
